Measured values: publication PMC10532523, “Rifamycin-Related Polyketides from a Marine-Derived Bacterium Salinispora arenicola and Their Cytotoxic Activity” (Marine Drugs, 2023)

Tests used:
Format in all cases: cell-based
Raji = assay: Cytotoxicity, CellTiter-Glo assay, Raji (Burkitt's lymphoma); conditions: Homo sapiens; Raji (Burkitt's lymphoma) cells; read-out: Growth inhibition GI50
Description: (§1) The cytotoxic activities of 1 and 6–8 against adherent cells and suspension cells were conducted by SRB (sulforhodamine B) assay and CellTiter-Glo assay, respectively, as described earlier. The compounds were dissolved and serially diluted in dimethyl sulfoxide. GraphPad Prism 8 (GraphPad Software Inc., San Diego, CA, USA) was used to determine GI50 values. Cancer and normal cell lines were purchased from the Japanese Cancer Research Resources Bank (JCRB) (NUGC-3, JCRB Cell Bank/Cat. # JCRB0822), the DSMZ-German Collection of Microorganisms and Cell Cultures (RPMI-8402, DSMZ/Cat # ACC 290; WSU-DLCL2, DSMZ/Cat # ACC 575), and the American Type Culture Collection (ATCC) (PC-3, ATCC/Cat. # CRL-1435; MDA-MB-231, ATCC/Cat. # HTB-26; ACHN, ATCC/Cat. # CRL-1611; NCI-H23, ATCC/Cat. # CRL-5800; HCT-15, ATCC/Cat. # CCL-225; HL-60, ATCC/Cat. # CCL-240; Raji, ATCC/Cat # CCL-86; K562, ATCC/Cat # CCL-243; NALM6, ATCC/Cat # CRL-3273; U266, ATCC/Cat # TIB-196); RPMI-1788, ATCC/Cat # TIB-156). Cells were cultured in Dulbecco’s Modified Eagles medium (ACHN, MDA-MB-231), RPMI-1640 medium (HCT-15, PC-3, NUGC-3, NCI-H23, Raji, NALM6, U266, WSU-DLCL2, RPMI-1788) or Improved Minimum Essential Medium (K562, HL-60), supplemented with fetal bovine serum and penicillin-streptomycin.

NCI-H23 = assay: Cytotoxicity, SRB assay, NCI-H23 (lung); conditions: Homo sapiens; NCI-H23 (lung) cells; read-out: Growth inhibition GI50
Description: as §1

U266 = assay: Cytotoxicity, CellTiter-Glo assay, U266 (multiple myeloma); conditions: Homo sapiens, U-266; U266 (multiple myeloma) cells; read-out: Growth inhibition GI50
Description: as §1

HL-60 = assay: Cytotoxicity, CellTiter-Glo assay, HL-60 (AML); conditions: Homo sapiens; HL-60 (acute myelogenous leukemia) cells; read-out: Growth inhibition GI50
Description: as §1

MDA-MB-231 = assay: Cytotoxicity, SRB assay, MDA-MB-231 (breast); conditions: Homo sapiens; MDA-MB-231 (breast) cells; read-out: Growth inhibition GI50
Description: as §1

RPMI-1788 = assay: Cytotoxicity, CellTiter-Glo assay, normal RPMI-1788 (B lymphocytes); conditions: RPMI-1788 (normal B lymphocytes) cell line; read-out: Growth inhibition GI50
Description: as §1

NALM6 = assay: Cytotoxicity, CellTiter-Glo assay, NALM6 (B-ALL); conditions: Homo sapiens, NALM-6; NALM6 (B cell acute lymphocytic leukemia) cells; read-out: Growth inhibition GI50
Description: as §1

PC-3 = assay: Cytotoxicity, SRB assay, PC-3 (prostate); conditions: Homo sapiens; PC-3 (prostate) cells; read-out: Growth inhibition GI50
Description: as §1

WSU-DLCL2 = assay: Cytotoxicity, CellTiter-Glo assay, WSU-DLCL2 (DLBCL); conditions: Homo sapiens, WSUDLCL2; WSU-DLCL2 (diffuse large B cell lymphoma) cells; read-out: Growth inhibition GI50
Description: as §1

ACHN = assay: Cytotoxicity, SRB assay, ACHN (renal); conditions: Homo sapiens; ACHN (renal) cells; read-out: Growth inhibition GI50
Description: as §1

NUGC-3 = assay: Cytotoxicity, SRB assay, NUGC-3 (stomach); conditions: Homo sapiens; NUGC-3 (stomach) cells; read-out: Growth inhibition GI50
Description: as §1

K562 = assay: Cytotoxicity, CellTiter-Glo assay, K562 (CML); conditions: Homo sapiens; K562 (chronic myelogenous leukemia) cells; read-out: Growth inhibition GI50
Description: as §1

RPMI-8402 = assay: Cytotoxicity, CellTiter-Glo assay, RPMI-8402 (T-ALL); conditions: Homo sapiens; RPMI-8402 (T cell acute lymphocytic leukemia) cells; read-out: Growth inhibition GI50
Description: as §1

HCT-15 = assay: Cytotoxicity, SRB assay, HCT-15 (colon); conditions: Homo sapiens; HCT-15 (colon) cells; read-out: Growth inhibition GI50
Description: as §1

[1] = test system: all the tested cell lines; assay: Cytotoxicity against the whole panel (one normal, six solid, seven blood cancer cell lines); conditions: span over one normal, six solid and seven blood cancer cell lines; read-out: GI50 across all the tested cell lines
Description: as §1

solid cancer cells = assay: Cytotoxicity against solid cancer cells (SRB assay); conditions: span over solid cancer cell lines
Description: as §1

SMILES	GI50 (Raji)	GI50 (NCI-H23)	GI50 (U266)	GI50 (HL-60)	GI50 (MDA-MB-231)	GI50 (RPMI-1788)	GI50 (NALM6)	GI50 (PC-3)	GI50 (WSU-DLCL2)	GI50 (ACHN)	GI50 (NUGC-3)	GI50 (K562)	GI50 (RPMI-8402)	GI50 (HCT-15)	GI50 [1]	GI50 (solid cancer cells)
COc1cccc2c1C(=O)c1c(O)c3c(c(O)c1C2=O)C[C@@](O)(C(=O)CO)C[C@@H]3O[C@H]1C[C@H](N)[C@H](O)[C@H](C)O1 [Adr., Adriamycin, reference compound]	0.003 µM	0.151 µM	0.034 µM	0.021 µM	0.159 µM	0.014 µM	0.002 µM	0.144 µM	0.002 µM	0.168 µM	0.136 µM	0.057 µM	0.014 µM	0.137 µM		
CC(=CC1C(=O)OC(C(C)C(O)C(C)C(O)C(C)C=CC=C(C)C(=O)NC2=CC(=O)c3cc(O)c(C)c(O)c3C2=O)C(C)C1O)C(=O)O (centres unmarked) [Compound 1, salinisporamycin C]	5.37 µM	8.05 µM	2.63 µM	9.96 µM	8.79 µM	8.47 µM	4.28 µM	8.46 µM	2.36 µM	8.45 µM	7.41 µM	7.17 µM	4.75 µM	9.25 µM	2.36 to 9.96 µM	
CC1=CC=CC(C)C(O)C(C)C(O)C(C)C(O)C(C)C(O)C=COC2(C)Oc3c(C)cc4c(O)c(cc(OC(=O)CO)c4c3C2=O)NC1=O (centres unmarked) [Compound 6, 8-deoxy-25-desacetyl-27-demethyl-rifamycin L]	12.1 µM	21.8 µM	2.3 µM	4.79 µM	> 30 µM	4.93 µM	4.76 µM	26.6 µM	5.4 µM	> 30 µM	29.8 µM	9.53 µM	2.45 µM	24.2 µM		21.8 to 29.8 µM
CC(=O)CC1OC(C(C)C(O)C(C)C(O)C(C)C=CC=C(C)C(N)=O)C(C)C1O (centres unmarked) [Compound 7, salinifuran A]	> 30 µM	> 30 µM	> 30 µM	> 30 µM	> 30 µM		26.8 µM	> 30 µM	> 30 µM	> 30 µM	> 30 µM	> 30 µM	> 30 µM	> 30 µM		
C/C(=C/C=C/[C@H](C)[C@H](O)[C@@H](C)[C@@H](O)[C@@H](C)[C@@H]1O[C@@]2(C)CC[C@@H](O2)[C@H]1C)C(N)=O [Compound 8, saliniketal A]	> 30 µM	> 30 µM	> 30 µM	> 30 µM	> 30 µM		> 30 µM	> 30 µM	> 30 µM	> 30 µM	> 30 µM	> 30 µM	> 30 µM	> 30 µM	> 30 µM	
